Data reported in PubChem BioAssay AID192 (DTP/NCI, 2004).
Values joined by “and” are separate entries in the source; they are usually repeats but may differ in a detail not shown here. Identical values can stand only once. Inconclusive results and toxic doses are left out.

Test system: BDF1 mice, B16 melanoma ip, median survival T/C
Assay: NCI In Vivo Anticancer Drug Screen. Data for tumor model B16 Melanoma (intraperitoneal) in B6D2F1 (BDF1) mice
Details: endpoint: median survival time, higher = longer survival
In short: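 Values are ratios of treated (T) to vehicle-control (C) measurements of survival or tumor size in tumor-bearing mice.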

[1] = dose: 6.25 mg/kg/injection, schedule: Q01DX009 (ip), vehicle: saline with Tween-80
[2] = dose: 12.5 mg/kg/injection, schedule: Q01DX009 (ip), vehicle: saline
[3] = dose: 25.0 mg/kg/injection, schedule: Q01DX009 (ip), vehicle: saline
[4] = dose: 12.5 mg/kg/injection, schedule: Q01DX009 (ip), vehicle: saline with Tween-80
[5] = dose: 50.0 mg/kg/injection, schedule: Q01DX009 (ip), vehicle: Klucel (hydroxypropylcellulose) (HPC)
[6] = dose: 100.0 mg/kg/injection, schedule: Q01DX009 (ip), vehicle: Klucel (hydroxypropylcellulose) (HPC)
[7] = dose: 200.0 mg/kg/injection, schedule: Q01DX009 (ip), vehicle: Klucel (hydroxypropylcellulose) (HPC)
[8] = dose: 25.0 mg/kg/injection, schedule: Q01DX009 (ip), vehicle: Klucel (hydroxypropylcellulose) (HPC)
[9] = dose: 100.0 mg/kg/injection, schedule: Q01DX009 (ip), vehicle: saline with Tween-80
[10] = dose: 200.0 mg/kg/injection, schedule: Q01DX009 (ip), vehicle: saline with Tween-80
[11] = dose: 400.0 mg/kg/injection, schedule: Q01DX009 (ip), vehicle: saline with Tween-80
[12] = dose: 25.0 mg/kg/injection, schedule: Q01DX009 (ip), vehicle: saline with Tween-80
[13] = dose: 50.0 mg/kg/injection, schedule: Q01DX009 (ip), vehicle: saline with Tween-80
[14] = dose: 400.0 mg/kg/injection, schedule: Q01DX009 (ip), vehicle: Klucel (hydroxypropylcellulose) (HPC)

## COc1cc2c(Cc3ccc(OC)c(OC)c3)[n+](Cc3ccccc3)ccc2cc1NCc1ccccc1
dose: 0.78 mg/kg/injection, schedule: Q01DX009 (ip), vehicle: saline with Tween-80
  T/C: 105 % of control
dose: 1.56 mg/kg/injection, schedule: Q01DX009 (ip), vehicle: saline with Tween-80
  T/C: 106 % of control
dose: 3.12 mg/kg/injection, schedule: Q01DX009 (ip), vehicle: saline with Tween-80
  T/C: 110 % of control
[1]
  T/C: 110 % of control

## Cc1ccc(NC(=O)N(CCCl)N=O)cc1C
dose: 3.12 mg/kg/injection, schedule: Q01DX009 (ip), vehicle: Klucel (hydroxypropylcellulose) (HPC)
  T/C: 150 % of control
dose: 6.25 mg/kg/injection, schedule: Q01DX009 (ip), vehicle: Klucel (hydroxypropylcellulose) (HPC)
  T/C: 150 % of control

## COCC(O)Cn1ccnc1[N+](=O)[O-] (stereo not drawn)
[2]
  T/C: 111 % of control
dose: 12.5 mg/kg/injection, schedule: Q01DX009 (ip), vehicle: suspension in saline
  T/C: 124 % of control
dose: 12.5 mg/kg/injection, schedule: Q01DX009 (ip), vehicle: water
  T/C: 95 % of control
[3]
  T/C: 105 % of control
dose: 25.0 mg/kg/injection, schedule: Q01DX009 (ip), vehicle: suspension in saline
  T/C: 124 % of control
dose: 25.0 mg/kg/injection, schedule: Q01DX009 (ip), vehicle: water
  T/C: 100 % of control
dose: 50.0 mg/kg/injection, schedule: Q01DX009 (ip), vehicle: saline
  T/C: 107 % of control
dose: 50.0 mg/kg/injection, schedule: Q01DX009 (ip), vehicle: suspension in saline
  T/C: 103 % of control
dose: 50.0 mg/kg/injection, schedule: Q01DX009 (ip), vehicle: water
  T/C: 111 % of control
dose: 100.0 mg/kg/injection, schedule: Q01DX009 (ip), vehicle: saline
  T/C: 101 % of control
dose: 100.0 mg/kg/injection, schedule: Q01DX009 (ip), vehicle: suspension in saline
  T/C: 110 % of control
dose: 100.0 mg/kg/injection, schedule: Q01DX009 (ip), vehicle: water
  T/C: 100 % of control
dose: 200.0 mg/kg/injection, schedule: Q01DX009 (ip), vehicle: saline
  T/C: 107 % of control
dose: 200.0 mg/kg/injection, schedule: Q01DX009 (ip), vehicle: suspension in saline
  T/C: 124 % of control
dose: 200.0 mg/kg/injection, schedule: Q01DX009 (ip), vehicle: water
  T/C: 103 % of control
dose: 400.0 mg/kg/injection, schedule: Q01DX009 (ip), vehicle: saline
  T/C: 104 % of control
dose: 400.0 mg/kg/injection, schedule: Q01DX009 (ip), vehicle: water
  T/C: 100 % of control

## CCC(CC)c1ccccn1
dose: 100.0 mg/kg/injection, schedule: Q01DX009 (ip), vehicle: carboxymethylcellulose (CMC)
  T/C: 101 % of control
dose: 200.0 mg/kg/injection, schedule: Q01DX009 (ip), vehicle: carboxymethylcellulose (CMC)
  T/C: 95 % of control

## COc1cc(Cl)c(CC(=O)c2c[nH]c3ccccc23)cc1OC
[1]
  T/C: 100 % of control
[4]
  T/C: 89 % of control

## CC(=O)Oc1ccc(C)cc1
[5]
  T/C: 103 % of control
[6]
  T/C: 112 % of control
[7]
  T/C: 103 % of control

## CC(=O)c1ccc(F)cc1
[8]
  T/C: 100 % of control
[5]
  T/C: 106 % of control
[6]
  T/C: 103 % of control
[7]
  T/C: 106 % of control

## C[C@H](N)C(=O)N[C@@H]1[C@H]2C(=C(O)C[C@@H](O)[C@@H]2O)C(=O)O[C@@H]1C
dose: 150.0 mg/kg/injection, schedule: Q01DX009 (ip), vehicle: saline
  T/C: 100 % of control
dose: 300.0 mg/kg/injection, schedule: Q01DX009 (ip), vehicle: saline
  T/C: 102 % of control
dose: 600.0 mg/kg/injection, schedule: Q01DX009 (ip), vehicle: saline
  T/C: 106 % of control
dose: 1200.0 mg/kg/injection, schedule: Q01DX009 (ip), vehicle: saline
  T/C: 116 % of control

## CCCNC1=C(N2CC2)C(=O)C(NCCC)=C(N2CC2)C1=O
dose: 1.25 mg/kg/injection, schedule: Q01DX009 (ip), vehicle: saline
  T/C: 108 % of control

## O=C(/C=C/c1ccncc1)c1ccccc1
dose: 12.5 mg/kg/injection, schedule: Q04DX003 (ip), vehicle: Klucel (hydroxypropylcellulose) (HPC)
  T/C: 93 % of control
dose: 25.0 mg/kg/injection, schedule: Q04DX003 (ip), vehicle: Klucel (hydroxypropylcellulose) (HPC)
  T/C: 110 % of control
dose: 50.0 mg/kg/injection, schedule: Q04DX003 (ip), vehicle: Klucel (hydroxypropylcellulose) (HPC)
  T/C: 103 % of control
dose: 100.0 mg/kg/injection, schedule: Q04DX003 (ip), vehicle: Klucel (hydroxypropylcellulose) (HPC)
  T/C: 99 % of control

## Cc1ccc(Cl)cc1NC(=O)Nc1ccc(C)c(NC(=O)Nc2cc(Cl)ccc2C)c1
[9]
  T/C: 90 % of control
[10]
  T/C: 95 % of control
[11]
  T/C: 90 % of control

## CCCc1c(C)[nH]c2ccc(C)cc12
[12]
  T/C: 101 % of control
[13]
  T/C: 105 % of control
[9]
  T/C: 87 % of control

## Cc1cc(Cc2cc(C)cc(C(C)(C)C)c2O)c(O)c(Cc2cc(C)cc(C(C)(C)C)c2O)c1
dose: 100.0 mg/kg/injection, schedule: Q04DX003 (ip), vehicle: gum acacia
  T/C: 97 % of control
dose: 200.0 mg/kg/injection, schedule: Q04DX003 (ip), vehicle: gum acacia
  T/C: 100 % of control

## NC(Cc1c[nH]c2ccc(N(CCCl)CCCl)cc12)C(=O)O (stereo not drawn)
dose: 0.25 mg/kg/injection, schedule: Q01DX009 (ip), vehicle: saline with Tween-80
  T/C: 159 % of control
dose: 0.5 mg/kg/injection, schedule: Q01DX009 (ip), vehicle: saline with Tween-80
  T/C: 163 % of control and 185 % of control
dose: 1.0 mg/kg/injection, schedule: Q01DX009 (ip), vehicle: saline with Tween-80
  T/C: 180 % of control and 226 % of control
dose: 2.0 mg/kg/injection, schedule: Q01DX009 (ip), vehicle: saline with Tween-80
  T/C: 184 % of control

## O=C(NNCc1ccccc1)C(O)C(O)C(O)CO (stereo not drawn)
[8]
  T/C: 95 % of control
[5]
  T/C: 95 % of control
[6]
  T/C: 92 % of control
[7]
  T/C: 100 % of control
[14]
  T/C: 95 % of control

## CC(C)C(NC(=O)OC(C)(C)C)C(=O)O (stereo not drawn)
[8]
  T/C: 123 % of control
[5]
  T/C: 101 % of control

## CC(C)(C)OC(=O)NCCCC(NC(=O)OCc1ccccc1)C(=O)O (stereo not drawn)
[13]
  T/C: 101 % of control
[9]
  T/C: 96 % of control
[10]
  T/C: 96 % of control
[11]
  T/C: 86 % of control

## CCCCN(CCCC)CCNc1ccc(Cl)c2oc3cc(C)ccc3c(=O)c12
[4]
  T/C: 100 % of control
[12]
  T/C: 93 % of control
dose: 25.0 mg/kg/injection, schedule: Q04DX003 (ip), vehicle: saline with Tween-80
  T/C: 105 % of control
dose: 50.0 mg/kg/injection, schedule: Q04DX003 (ip), vehicle: saline with Tween-80
  T/C: 92 % of control
dose: 100.0 mg/kg/injection, schedule: Q04DX003 (ip), vehicle: saline with Tween-80
  T/C: 86 % of control

## COc1cc(/C=C/c2nc3ccccc3nc2/C=C/c2cc(OC)c(OC)c(OC)c2)cc(OC)c1OC
[1]
  T/C: 106 % of control
[4]
  T/C: 97 % of control

## C[n+]1cc2c3ccccc3c(N)cc2c2ccccc21
dose: 3.13 mg/kg/injection, schedule: Q01DX009 (ip), vehicle: saline
  T/C: 106 % of control

## O=C(COc1ccc(Cl)cc1)Nc1cc(C(F)(F)F)ccc1Cl
[12]
  T/C: 103 % of control
[13]
  T/C: 96 % of control
[9]
  T/C: 105 % of control

## O=C(O)c1cccnc1
dose: 12.5 mg/kg/injection, schedule: Q01DX009 (ip), vehicle: Klucel (hydroxypropylcellulose) (HPC)
  T/C: 112 % of control
[8]
  T/C: 105 % of control
[5]
  T/C: 97 % of control
[6]
  T/C: 100 % of control

## CCCCCCC1N(Cc2ccccc2N(C)C)CCCN1Cc1ccccc1N(C)C
dose: 75.0 mg/kg/injection, schedule: Q01DX009 (ip), vehicle: saline
  T/C: 97 % of control

## COc1cccc(NC(=O)Nc2ccccc2OC)c1
[6]
  T/C: 86 % of control
[7]
  T/C: 90 % of control
[14]
  T/C: 93 % of control

## O=C(O)C(CSC(c1ccccc1)(c1ccccc1)c1ccccc1)N=Cc1cccs1 (stereo not drawn)
[2]
  T/C: 117 % of control
[3]
  T/C: 122 % of control

## Oc1ccccc1N=Cc1ccc(C=Nc2ccccc2O)cc1
dose: 133.0 mg/kg/injection, schedule: Q01DX009 (ip), vehicle: gum acacia
  T/C: 88 % of control
dose: 200.0 mg/kg/injection, schedule: Q01DX009 (ip), vehicle: gum acacia
  T/C: 99 % of control

## CC(C)C(=O)[O][Sn]([c]1ccccc1)([c]1ccccc1)[c]1ccccc1
dose: 3.0 mg/kg/injection, schedule: Q01DX009 (ip), vehicle: saline with Tween-80
  T/C: 108 % of control
dose: 6.0 mg/kg/injection, schedule: Q01DX009 (ip), vehicle: saline with Tween-80
  T/C: 105 % of control
dose: 12.0 mg/kg/injection, schedule: Q01DX009 (ip), vehicle: saline with Tween-80
  T/C: 124 % of control
[4]
  T/C: 100 % of control
